{"source": "patent US20130065868A1", "about": "“ANXIOYTIC MARCGRAVIACEAE COMPOSITIONS CONTAINING BETULINIC ACID, BETULINIC ACID DERIVATIVES, AND METHODS” (UNIVERSITY OF OTTAWA, priority 2002, published 2013)", "key": {"opiate non-selective": {"system": "opiate non-selective", "experiment": "MDS Panlabs screen: opiate non-selective", "format": "binding", "details": "Peptides", "description": "(§1) Tests were conducted by MDS Panlabs to determine whether any of the classical neurotransmitter systems or the peptidergic systems thought to play a role in anxiety are affected by betulinic acid."}, "neurotensin": {"system": "neurotensin", "experiment": "MDS Panlabs screen: neurotensin", "format": "binding", "details": "Peptides", "description": "as §1"}, "adrenergic α1": {"system": "adrenergic α1", "experiment": "MDS Panlabs screen: adrenergic α1", "format": "binding", "details": "Catecholamines", "description": "as §1"}, "bombesin": {"system": "bombesin", "experiment": "MDS Panlabs screen: bombesin", "format": "binding", "details": "Peptides", "description": "as §1"}, "Sprague-Dawley rats [1]": {"system": "Sprague-Dawley rats", "experiment": "Rat social interaction paradigm", "format": "in vivo", "details": "0.5 mg/kg i.p.", "excerpt": "The rat social interaction paradigm takes advantage of rats' natural behaviour in novel situations. The more ‘anxious’ the animals are, the less likely they are engage in social interaction with the cohort. Anxiolytic drugs typically increase the amount of time rodents spend socially interacting with one another. (Pile, S. E., (1980). The use of social interaction as a method for detecting anxiolytic activity of chlor-diazepoxide-like drugs. In Current Protocols in Neuroscience (pp. 8.3.3-8.3.4), John-Wiley & Sons).\nThe social-interaction (SI) test arena constituted of a 60×60 cm white Plexiglas floor, enclosed by 35-cm high walls of the same material. The arena was surrounded by black curtain, and a closed circuit camera was positioned above the setup, to feed live video signals to the experimenter seated in a separate room, for behavioral assessment and recording.\nEach rat was placed alone in the SI box for 7.5 min daily for 2 days, in order to familiarize the animals with the test environment. Animals were paired according to their body weights (less than 10 g difference) and each pair was randomly assigned to one of the treatment groups. Rats received either betulinic acid 0.5 mg/kg i.p., betulinic acid methyl ester (methyl betulinate) 0.5 mg/kg i.p., or peanut oil only (control). Drugs were injected (i.p.) 60 min prior to testing. Tests were carried out at three intervals, 1 h, 2.5 h and 4 h after injection. Each pair was tested at the 1-h interval, then new pairs from within the same drug group were formed for the 2.5-h interval and then again at the 4-h interval (new pairs were formed for each test interval, to control for the potential confounding effect partner familiarity). […] The behaviors scored included the amount of time the pairs spent interacting together (sniffing, grooming and chasing) as well as the number of times the animals initiated contact."}, "GABA transporter": {"system": "GABA transporter", "experiment": "MDS Panlabs screen: GABA transporter", "format": "binding", "details": "Gabaergic", "description": "as §1"}, "Sprague-Dawley rats [2]": {"system": "Sprague-Dawley rats", "experiment": "Fear-potentiated startle paradigm in rats", "format": "in vivo, rat", "excerpt": "In this anxiety/fear paradigm, rats are first trained to associate a neutral stimulus (a light) with an aversive stimulus (an electric shock to the foot). […] However, when the acoustic stimulus is preceded by a fear cue (the light in this case), there is potentiation of their natural startle response. This potentiation of startle responses is thought to result from a classically conditioned increase in fear. Anxiolysis is inferred when there is a reduction in the magnitude of the fear-potentiated startle response.\nThe fear potentiated startle equipment (Med-Associates, St-Albans, Vt.) constituted (1) a pressure-sensitive platform upon which the animal is placed (in an enclosure with shock-grid floor), (2) Speakers and amplifier, to deliver acoustic stimulus, (3) Computer controlled light cue, and (4) a computerized interface to deliver the auditory and/or visual stimuli, and to record the magnitude of startle detected by the platform. The whole set up is housed in a sound attenuated and darkened chamber.\nThe experiment involved three phases; a training phase, a screening phase and the testing phase. […] The second or screening phase involved identifying the rats that learnt to associate the light cue with the shock, which was assessed by measuring their startle response in the absence and the presence of the fear cue. […]"}}, "data": [{"smiles": "C=C(C)[C@@H]1CC[C@]2(C(=O)O)CC[C@]3(C)C(CC[C@@H]4[C@@]5(C)CC[C@H](O)C(C)(C)[C@@H]5CC[C@]43C)[C@@H]12", "note": "(stereo partly drawn) [betulinic acid, Betulinic acid]", "values": [{"measurement": "affected by betulinic acid", "setting": "opiate non-selective", "result": "none of the following neurotransmitters or proteins were affected"}, {"measurement": "affected by betulinic acid", "setting": "neurotensin", "result": "none of the following neurotransmitters or proteins were affected"}, {"measurement": "affected by betulinic acid", "setting": "adrenergic α1", "result": "none of the following neurotransmitters or proteins were affected"}, {"measurement": "affected by betulinic acid", "setting": "bombesin", "result": "none of the following neurotransmitters or proteins were affected"}, {"measurement": "frequency of initiated contact", "setting": "Sprague-Dawley rats [1]", "result": "not significant"}, {"measurement": "amount of social interaction (interaction time) compared to the control group", "setting": "Sprague-Dawley rats [1]; data collapsed across 1 h, 2.5 h and 4 h (FIG. 8)", "result": "significantly increased the amount of social interaction"}, {"measurement": "affected by betulinic acid", "setting": "GABA transporter", "result": "none of the following neurotransmitters or proteins were affected"}, {"measurement": "startle response in the presence of the fear-cue", "setting": "Sprague-Dawley rats [2]; 1 mg/kg in peanut oil orally (gavage), 45-60 min after treatment (FIG. 4)", "result": "significantly attenuated the startle response in the presence of the fear-cue"}, {"measurement": "difference in startle amplitude (presence minus absence of the fear cue)", "setting": "Sprague-Dawley rats [2]; 1 mg/kg orally (gavage), vs peanut oil control (FIG. 4)", "result": "much lower"}]}]}
